Each compound was assayed against SARS-CoV PLpro (Severe acute respiratory syndrome coronavirus, UniProt P0C6U8) (assay: biochemical).
Format: biochemical
With `CC(C)(O)CCCC1(C)CCc2c(cc3c(c2O)C(=O)C[C@@H](c2ccc(O)c(O)c2)O3)O1` (stereo partly drawn) [Compound 1, (2S)-2-(3,4-dihydroxyphenyl)-5-hydroxy-8-(4-hydroxy-4-methylpentyl)-8-methyl-2,3,7,8-tetrahydropyrano[3,2-g]chromen-4(6H)-one] the Kinetic mode was “Mixed (4.8)”.
With `COc1cc([C@@H]2CC(=O)c3c(cc4c(c3O)CCC(C)(CCCC(C)(C)O)O4)O2)cc(O)c1OC` (stereo partly drawn) [Compound 3, (2S)-5-hydroxy-2-(5-hydroxy-3,4-dimethoxyphenyl)-8-(4-hydroxy-4-methylpentyl)-8-methyl-2,3,7,8-tetrahydropyrano[3,2-g]chromen-4(6H)-one] the Kinetic mode was “Mixed (5.0)”.
With `COc1cc([C@@H]2CC(=O)c3c(cc4c(c3O)CCC(C)(CCCC(C)(C)O)O4)O2)cc(OC)c1O` (stereo partly drawn) [Compound 4, (2S)-5-hydroxy-2-(4-hydroxy-3,5-dimethoxyphenyl)-8-(4-hydroxy-4-methylpentyl)-8-methyl-2,3,7,8-tetrahydropyrano[3,2-g]chromen-4(6H)-one] the Kinetic mode was “Mixed (13.0)”.
`COc1cc([C@H]2Oc3cc4c(c(O)c3C(=O)[C@@H]2O)CCC(C)(CCCC(C)(C)O)O4)ccc1O` (stereo partly drawn) [Compound 5, (2R,3R)-3,5-dihydroxy-2-(4-hydroxy-3-methoxyphenyl)-8-(4-hydroxy-4-methylpentyl)-8-methyl-2,3,7,8-tetrahydropyrano[3,2-g]chromen-4(6H)-one] was tested, and the Kinetic mode was “Mixed (3.7)”.
`COc1cc([C@H]2Oc3cc(O)c(C/C=C(\C)CCC=C(C)C)c(O)c3C(=O)[C@@H]2O)ccc1O` [Compound 6, 3′-O-methyldiplacol] was tested, and the Kinetic mode was “Mixed (6.6)”.
In the case of `COc1ccc([C@H]2Oc3cc(O)c(C/C=C(\C)CCC=C(C)C)c(O)c3C(=O)[C@@H]2O)cc1O` [Compound 7, 4′-O-methyldiplacol], the Kinetic mode is reported as “Mixed (6.3)”.
`COc1cc([C@@H]2CC(=O)c3c(cc(O)c(C/C=C(\C)CCC=C(C)C)c3O)O2)ccc1O` [Compound 8, 3′-O-methyldiplacone] was tested, and the Kinetic mode was “Mixed (7.1)”.
`COc1cc(C2CC(=O)c3c(cc(O)c(C/C=C(\C)CCC=C(C)C)c3O)O2)cc(OC)c1O` (centres unmarked) [Compound 12, 6-geranyl-4′,5,7-trihydroxy-3′,5′-dimethoxyflavanone] was tested, and the IC50 was 13.9 ± 0.18 µM.

Source: article PMC7126831 (Bioorganic & Medicinal Chemistry, 2013)
